Measurements taken from patent US12209081B2 (Katholieke Universiteit Leuven, priority 2020, dated 2025).

Biological target: mouse TRPM3α2 (mTRPM3) ion channel (Mus musculus (Mouse), UniProt J9SQF3)
Experiment: TRPM3 ion channel driven Ca2+ uptake, Fluo-4 AM assay, mTRPM3alpha2 overexpressing flip-in HEK293 cells stimulated with pregnenolone sulfate
Type: cell-based
Conditions: PS (50 μM) stimulated, cpds. 400-499
In short: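 Flip-in HEK293 cells loaded with Fluo-4 AM were added to plates holding compound plus 50 μM pregnenolone sulfate in Ca2+-containing Krebs buffer. Fluorescence (ex 485/em 535 nm) read directly after cell addition; % inhibition relative to PS-stimulated vehicle and positive-control inhibitor.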

Sequence of mouse TRPM3α2 (mTRPM3) ion channel (J9SQF3 other isoform, or with tags, fused parts or gaps): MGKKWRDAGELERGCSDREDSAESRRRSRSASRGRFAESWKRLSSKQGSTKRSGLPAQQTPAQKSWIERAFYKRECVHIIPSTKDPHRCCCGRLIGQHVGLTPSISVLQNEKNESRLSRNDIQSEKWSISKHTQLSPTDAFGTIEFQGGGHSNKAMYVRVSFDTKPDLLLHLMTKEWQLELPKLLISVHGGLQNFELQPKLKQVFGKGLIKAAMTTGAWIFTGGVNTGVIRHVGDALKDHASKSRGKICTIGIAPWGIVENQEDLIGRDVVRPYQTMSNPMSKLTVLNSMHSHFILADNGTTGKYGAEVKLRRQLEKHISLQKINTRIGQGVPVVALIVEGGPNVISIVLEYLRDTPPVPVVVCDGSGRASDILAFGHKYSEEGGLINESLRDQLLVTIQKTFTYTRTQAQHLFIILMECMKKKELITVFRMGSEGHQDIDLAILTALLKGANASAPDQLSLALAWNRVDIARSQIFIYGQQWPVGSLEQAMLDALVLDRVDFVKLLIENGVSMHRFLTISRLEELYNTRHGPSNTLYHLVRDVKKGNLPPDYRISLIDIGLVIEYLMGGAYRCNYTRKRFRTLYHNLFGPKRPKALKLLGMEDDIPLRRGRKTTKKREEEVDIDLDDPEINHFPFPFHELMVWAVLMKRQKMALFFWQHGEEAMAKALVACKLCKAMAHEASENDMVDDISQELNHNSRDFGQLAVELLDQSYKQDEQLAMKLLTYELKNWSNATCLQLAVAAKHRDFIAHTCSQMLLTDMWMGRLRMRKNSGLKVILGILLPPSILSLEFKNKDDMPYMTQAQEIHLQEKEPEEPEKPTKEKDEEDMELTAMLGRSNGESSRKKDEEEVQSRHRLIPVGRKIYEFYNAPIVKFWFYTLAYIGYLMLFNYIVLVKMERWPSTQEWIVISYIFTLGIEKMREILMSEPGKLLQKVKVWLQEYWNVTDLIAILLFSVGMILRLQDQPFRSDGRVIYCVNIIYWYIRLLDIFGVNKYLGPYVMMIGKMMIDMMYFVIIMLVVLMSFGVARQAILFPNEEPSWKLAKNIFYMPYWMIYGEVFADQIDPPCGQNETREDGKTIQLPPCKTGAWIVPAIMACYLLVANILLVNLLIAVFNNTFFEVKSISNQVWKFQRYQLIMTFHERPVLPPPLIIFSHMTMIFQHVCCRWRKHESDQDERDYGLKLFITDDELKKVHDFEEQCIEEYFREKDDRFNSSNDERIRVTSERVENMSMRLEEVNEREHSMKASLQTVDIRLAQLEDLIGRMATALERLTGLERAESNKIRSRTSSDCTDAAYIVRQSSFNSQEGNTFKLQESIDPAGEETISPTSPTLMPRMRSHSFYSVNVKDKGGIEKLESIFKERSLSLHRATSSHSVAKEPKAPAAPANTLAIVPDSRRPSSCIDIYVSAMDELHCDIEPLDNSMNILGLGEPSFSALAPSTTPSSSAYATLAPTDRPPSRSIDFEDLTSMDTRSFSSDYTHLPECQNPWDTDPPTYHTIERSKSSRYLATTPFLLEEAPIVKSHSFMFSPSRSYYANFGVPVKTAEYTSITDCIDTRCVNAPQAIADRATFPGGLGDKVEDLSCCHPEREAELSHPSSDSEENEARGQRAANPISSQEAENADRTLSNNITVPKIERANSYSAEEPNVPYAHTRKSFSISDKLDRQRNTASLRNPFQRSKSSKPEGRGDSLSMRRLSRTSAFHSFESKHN

Structure (SMILES) | IC50 [nM]
Cc1oc2ccc(OCc3ccnn3C)cc2c1C(=O)NC(C)(C)C(N)=O [compound 438, N-(1-amino-2-methyl-1-oxopropan-2-yl)-2-methyl-5-((1-methyl-1H-pyrazol-5-yl)methoxy)benzofuran-3-carboxamide] | < 1000
Cc1ncc(COc2ccc3oc(C)c(C(=O)NC(C)(C)C(N)=O)c3c2)s1 [compound 439, N-(1-amino-2-methyl-1-oxopropan-2-yl)-2-methyl-5-((2-methylthiazol-5-yl)methoxy)benzofuran-3-carboxamide] | < 1000
Cc1ncsc1COc1ccc2oc(C)c(C(=O)NC(C)(C)C(N)=O)c2c1 [compound 440, N-(1-amino-2-methyl-1-oxopropan-2-yl)-2-methyl-5-((4-methylthiazol-5-yl)methoxy)benzofuran-3-carboxamide] | < 1000
Cc1oc2ccc(OCc3cccnn3)cc2c1C(=O)NC(C)(C)C(N)=O [compound 441, N-(1-amino-2-methyl-1-oxopropan-2-yl)-2-methyl-5-(pyridazin-3-ylmethoxy)benzofuran-3-carboxamide] | < 1000
Cc1oc2ccc(OCc3ccccn3)cc2c1C(=O)NC(C)(C)C(N)=O [compound 442, N-(1-amino-2-methyl-1-oxopropan-2-yl)-2-methyl-5-(pyridin-2-ylmethoxy)benzofuran-3-carboxamide] | < 1000
Cc1oc2ccc(OCc3cccnc3O)cc2c1C(=O)NC(C)(C)C(N)=O [compound 443, N-(1-amino-2-methyl-1-oxopropan-2-yl)-5-((2-hydroxypyridin-3-yl)methoxy)-2-methylbenzofuran-3-carboxamide] | < 1000
COc1ncccc1COc1ccc2oc(C)c(C(=O)NC(C)(C)C(N)=O)c2c1 [compound 444, N-(1-amino-2-methyl-1-oxopropan-2-yl)-5-((2-methoxypyridin-3-yl)methoxy)-2-methylbenzofuran-3-carboxamide] | < 1000
Cc1ncsc1COc1ccc2oc(C)c(C(=O)NC(CO)C(N)=O)c2c1 (stereo not shown) [compound 454, N-(1-amino-3-hydroxy-1-oxopropan-2-yl)-2-methyl-5-((4-methylthiazol-5-yl)methoxy)benzofuran-3-carboxamide] | < 1000
Cc1ncsc1COc1ccc2oc(C)c(C(=O)NC3(C(N)=O)CC(F)(F)C3)c2c1 [compound 470, N-(1-carbamoyl-3,3-difluorocyclobutyl)-2-methyl-5-((4-methylthiazol-5-yl)methoxy)benzofuran-3-carboxamide] | < 1000
Cc1ncc(COc2ccc3oc(C)c(C(=O)NC4(C(N)=O)CCC4)c3c2)s1 [compound 471, N-(1-carbamoylcyclobutyl)-2-methyl-5-((2-methylthiazol-5-yl)methoxy)benzofuran-3-carboxamide] | < 1000
Cc1oc2ccc(OCc3ccccn3)cc2c1C(=O)NC1(C(N)=O)CCC1 [compound 472, N-(1-carbamoylcyclobutyl)-2-methyl-5-(pyridin-2-ylmethoxy)benzofuran-3-carboxamide] | < 1000
Cc1oc2ccc(OCc3cccnc3O)cc2c1C(=O)NC1(C(N)=O)CCC1 [compound 473, N-(1-carbamoylcyclobutyl)-5-((2-hydroxypyridin-3-yl)methoxy)-2-methylbenzofuran-3-carboxamide] | < 1000
COc1ncccc1COc1ccc2oc(C)c(C(=O)NC3(C(N)=O)CCC3)c2c1 [compound 474, N-(1-carbamoylcyclobutyl)-5-((2-methoxypyridin-3-yl)methoxy)-2-methylbenzofuran-3-carboxamide] | < 1000
Cc1oc2ccc(OCc3cccnc3C(F)(F)F)cc2c1C(=O)NC1(C(N)=O)CC1 [compound 475, N-(1-carbamoylcyclopropyl)-2-methyl-5-((2-(trifluoromethyl)pyridin-3-yl)methoxy)benzofuran-3-carboxamide] | < 1000
Cc1ncc(COc2ccc3oc(C)c(C(=O)NC4(C(N)=O)CC4)c3c2)s1 [compound 476, N-(1-carbamoylcyclopropyl)-2-methyl-5-((2-methylthiazol-5-yl)methoxy)benzofuran-3-carboxamide] | < 1000
Cc1ncsc1COc1ccc2oc(C)c(C(=O)NC3(C(N)=O)CC3)c2c1 [compound 477, N-(1-carbamoylcyclopropyl)-2-methyl-5-((4-methylthiazol-5-yl)methoxy)benzofuran-3-carboxamide] | < 1000
Cc1oc2ccc(OCc3ccccn3)cc2c1C(=O)NC1(C(N)=O)CC1 [compound 478, N-(1-carbamoylcyclopropyl)-2-methyl-5-(pyridin-2-ylmethoxy)benzofuran-3-carboxamide] | < 1000
COc1ncccc1COc1ccc2oc(C)c(C(=O)NC3(C(N)=O)CC3)c2c1 [compound 480, N-(1-carbamoylcyclopropyl)-5-((2-methoxypyridin-3-yl)methoxy)-2-methylbenzofuran-3-carboxamide] | < 1000

Further lines, results first:

IC50 [nM] | Structure (SMILES)
< 1000 | Cc1ncsc1COc1ccc2oc(C)c(C(=O)NC3(COC(F)F)CC3)c2c1 [compound 400, N-(1-((difluoromethoxy)methyl)cyclopropyl)-2-methyl-5-((4-methylthiazol-5-yl)methoxy)benzofuran-3-carboxamide]
< 1000 | Cc1ncc(COc2ccc3oc(C)c(C(=O)NC4(CO)CCC4)c3c2)s1 [compound 414, N-(1-(hydroxymethyl)cyclobutyl)-2-methyl-5-((2-methylthiazol-5-yl)methoxy)benzofuran-3-carboxamide]
< 1000 | Cc1oc2ccc(OCc3ccccn3)cc2c1C(=O)NC1(CO)CCC1 [compound 415, N-(1-(hydroxymethyl)cyclobutyl)-2-methyl-5-(pyridin-2-ylmethoxy)benzofuran-3-carboxamide]
< 1000 | Cc1oc2ccc(OCc3cccnc3O)cc2c1C(=O)NC1(CO)CCC1 [compound 416, N-(1-(hydroxymethyl)cyclobutyl)-5-((2-hydroxypyridin-3-yl)methoxy)-2-methylbenzofuran-3-carboxamide]
< 1000 | COc1ncccc1COc1ccc2oc(C)c(C(=O)NC3(CO)CCC3)c2c1 [compound 417, N-(1-(hydroxymethyl)cyclobutyl)-5-((2-methoxypyridin-3-yl)methoxy)-2-methylbenzofuran-3-carboxamide]
< 1000 | Cc1ncc(COc2ccc3oc(C)c(C(=O)NC4(CO)CC4)c3c2)s1 [compound 418, N-(1-(hydroxymethyl)cyclopropyl)-2-methyl-5-((2-methylthiazol-5-yl)methoxy)benzofuran-3-carboxamide]
< 1000 | Cc1oc2ccc(OCc3ccccn3)cc2c1C(=O)NC1(CO)CC1 [compound 419, N-(1-(hydroxymethyl)cyclopropyl)-2-methyl-5-(pyridin-2-ylmethoxy)benzofuran-3-carboxamide]
< 1000 | Cc1oc2ccc(OCc3cccnc3O)cc2c1C(=O)NC1(CO)CC1 [compound 420, N-(1-(hydroxymethyl)cyclopropyl)-5-((2-hydroxypyridin-3-yl)methoxy)-2-methylbenzofuran-3-carboxamide]
< 1000 | COc1ncccc1COc1ccc2oc(C)c(C(=O)NC3(CO)CC3)c2c1 [compound 421, N-(1-(hydroxymethyl)cyclopropyl)-5-((2-methoxypyridin-3-yl)methoxy)-2-methylbenzofuran-3-carboxamide]
< 1000 | Cc1oc2ccc(OCc3nccn3C)cc2c1C(=O)NC(C)(CO)CO [compound 422, N-(1,3-dihydroxy-2-methylpropan-2-yl)-2-methyl-5-((1-methyl-1H-imidazol-2-yl)methoxy)benzofuran-3-carboxamide]
< 1000 | Cc1oc2ccc(OCc3ccnn3C)cc2c1C(=O)NC(C)(CO)CO [compound 423, N-(1,3-dihydroxy-2-methylpropan-2-yl)-2-methyl-5-((1-methyl-1H-pyrazol-5-yl)methoxy)benzofuran-3-carboxamide]
< 1000 | Cc1oc2ccc(OCc3cccnc3C(F)(F)F)cc2c1C(=O)NC(C)(CO)CO [compound 424, N-(1,3-dihydroxy-2-methylpropan-2-yl)-2-methyl-5-((2-(trifluoromethyl)pyridin-3-yl)methoxy)benzofuran-3-carboxamide]
< 1000 | Cc1ncc(COc2ccc3oc(C)c(C(=O)NC(C)(CO)CO)c3c2)s1 [compound 425, N-(1,3-dihydroxy-2-methylpropan-2-yl)-2-methyl-5-((2-methylthiazol-5-yl)methoxy)benzofuran-3-carboxamide]
< 1000 | Cc1ncsc1COc1ccc2oc(C)c(C(=O)NC(C)(CO)CO)c2c1 [compound 426, N-(1,3-dihydroxy-2-methylpropan-2-yl)-2-methyl-5-((4-methylthiazol-5-yl)methoxy)benzofuran-3-carboxamide]
< 1000 | Cc1oc2ccc(OCc3cccnn3)cc2c1C(=O)NC(C)(CO)CO [compound 427, N-(1,3-dihydroxy-2-methylpropan-2-yl)-2-methyl-5-(pyridazin-3-ylmethoxy)benzofuran-3-carboxamide]
< 1000 | Cc1oc2ccc(OCc3ccccn3)cc2c1C(=O)NC(C)(CO)CO [compound 428, N-(1,3-dihydroxy-2-methylpropan-2-yl)-2-methyl-5-(pyridin-2-ylmethoxy)benzofuran-3-carboxamide]
< 1000 | Cc1oc2ccc(OCc3ccncn3)cc2c1C(=O)NC(C)(CO)CO [compound 429, N-(1,3-dihydroxy-2-methylpropan-2-yl)-2-methyl-5-(pyrimidin-4-ylmethoxy)benzofuran-3-carboxamide]
< 1000 | Cc1oc2ccc(OCc3cccnc3O)cc2c1C(=O)NC(C)(CO)CO [compound 430, N-(1,3-dihydroxy-2-methylpropan-2-yl)-5-((2-hydroxypyridin-3-yl)methoxy)-2-methylbenzofuran-3-carboxamide]
< 1000 | COc1ncccc1COc1ccc2oc(C)c(C(=O)NC(C)(CO)CO)c2c1 [compound 431, N-(1,3-dihydroxy-2-methylpropan-2-yl)-5-((2-methoxypyridin-3-yl)methoxy)-2-methylbenzofuran-3-carboxamide]
